Test results reported in patent publication US9901592B2 (priority 2008, dated 2018).
In brackets after ≈: the same amount, converted by molar mass. Read-outs that look alike come from different tables or passages of the source.

Key:
S. pneumoniae [1] = format: cell-based
S. pneumoniae [2] = assay: mouse subcutaneous abscess model; format: in vivo; conditions: for average log10 CFU/gram of abscess: S. pneumoniae 1629, 10 mg/Kg PO
Experimental: Example. Efficacy was evaluated in several infection models. […] PD50s were determined 24 hr post infection. CEM-101 was further evaluated in a subcutaneous abscess mouse model against S. pneumoniae. CD-1 female mice were infected via SC injection of bacteria mixed with cyclodextran beads. Two hr post infection, mice received a single oral dose of CEM 101 or control agents. At 48 hr post dose, mice were euthanized, abscesses aseptically removed and bacteria enumerated. CFU per abscess was determined and compared to the untreated control. […] 24 hr post treatment, the thighs were processed and CFU/gram of thigh determined.
Example. Mouse Subcutaneous Abscess. Bacteria were prepared from an overnight plate culture by re-suspending in saline and adjusting the suspension to a 0.1 OD at 625 nm of a 1:10 dilution. The adjusted bacterial suspension was mixed 1:2 with cyclodextran beads prepared as per package instructions. The right flanks of the mice were shaven and injected subcutaneously with 0.2 ml of the bacterial inoculum. Two hours post infection mice were treated via oral gavage with either test article or control drug. 48 hours post infection, mice were euthanized, abscesses aseptically removed, homogenized, serially diluted and plated on bacterial growth agar. After overnight incubation, colonies were counted and CFUs/gram of abscess were determined.
Example. The ability of CEM101 to reduce the microbial load in abscess infection model was also assessed against S. pneumoniae isolates.

S. pyogenes [3] = format: cell-based; conditions: for Mutant selection frequencies: S. pyogenes
S. pyogenes [4] = assay: MIC of the strains of the mouse systemic infection model; format: cell-based; conditions: Streptococcus pyogenes
S. pneumoniae [5] = assay: microbe, parasite or virus in culture; format: cell-based; conditions: for MIC: Streptococcus pneumoniae
S. pneumoniae [6] = assay: neutropenic mouse thigh infection; format: in vivo; conditions: QD, PO

CC[C@H]1OC(=O)[C@H](C)[C@@H](O[C@H]2C[C@@](C)(OC)[C@@H](O)[C@H](C)O2)[C@H](C)[C@@H](O[C@@H]2O[C@H](C)C[C@H](N(C)C)[C@H]2O)[C@](C)(OC)C[C@@H](C)C(=O)[C@H](C)[C@@H](O)[C@]1(C)O [CLR, clarithromycin]
Mutant selection frequencies (S. pneumoniae [1]; S. pneumoniae, at 2×MIC): <1.0×10^−9-5.0×10^−7
single step mutation frequency (S. pneumoniae [1]; strain 1077 Macrolide-S, 2 × MIC): 1.1 × 10^−9
single step mutation frequency (S. pneumoniae [1]; strain 1077 Macrolide-S, 4 × MIC): <1.2 × 10^−10
single step mutation frequency (S. pneumoniae [1]; strain 1077 Macrolide-S, 8 × MIC): <1.2 × 10^−10
single step mutation frequency (S. pneumoniae [1]; strain 1635 Macrolide-R [erm(A)], 2 × MIC): <3.1 × 10^−9
single step mutation frequency (S. pneumoniae [1]; strain 1635 Macrolide-R [erm(A)], 4 × MIC): <3.1 × 10^−9
single step mutation frequency (S. pneumoniae [1]; strain 1635 Macrolide-R [erm(A)], 8 × MIC): <3.1 × 10^−9
single step mutation frequency (S. pneumoniae [1]; strain 3665 Macrolide-R [mef(A)], 2 × MIC): 5.0 × 10^−7
single step mutation frequency (S. pneumoniae [1]; strain 3665 Macrolide-R [mef(A)], 4 × MIC): <5.0 × 10^−10
single step mutation frequency (S. pneumoniae [1]; strain 3665 Macrolide-R [mef(A)], 8 × MIC): <5.0 × 10^−10
single step mutation frequency (S. pneumoniae [1]; strain 7127 Macrolide-S [S20N in L4, A105V in L22], 2 × MIC): <1.0 × 10^−9
single step mutation frequency (S. pneumoniae [1]; strain 7127 Macrolide-S [S20N in L4, A105V in L22], 4 × MIC): <1.0 × 10^−9
single step mutation frequency (S. pneumoniae [1]; strain 7127 Macrolide-S [S20N in L4, A105V in L22], 8 × MIC): <1.0 × 10^−9
average log10 CFU/gram of abscess (S. pneumoniae [2]; 24 hours): ~5.5 log10 CFU/gram
average log10 CFU/gram of abscess (S. pneumoniae [2]; 48 hours): ~5.5 log10 CFU/gram
log decrease of CFU from untreated mice (S. pneumoniae [2]; abscess, 10 mg/Kg QD dose): 1.5 log10
Mutant selection frequencies (S. pyogenes [3]; at 2×MIC): <1.0×10^−10-1.7×10^−7
Mutant selection frequencies (S. pyogenes [3]; at 8×MIC): <1.0×10^−10-5.0×10^−9
single step mutation frequency (S. pyogenes [3]; strain 237 Macrolide-R [L4 mutation], 2 × MIC): <3.3 × 10^−10
single step mutation frequency (S. pyogenes [3]; strain 237 Macrolide-R [L4 mutation], 4 × MIC): <3.3 × 10^−10
single step mutation frequency (S. pyogenes [3]; strain 237 Macrolide-R [L4 mutation], 8 × MIC): <3.3 × 10^−10
single step mutation frequency (S. pyogenes [3]; strain 2094 Macrolide-R [erm(A)], 2 × MIC): 1.7 × 10^−7
single step mutation frequency (S. pyogenes [3]; strain 2094 Macrolide-R [erm(A)], 4 × MIC): 1.0 × 10^−7
single step mutation frequency (S. pyogenes [3]; strain 2094 Macrolide-R [erm(A)], 8 × MIC): 5.0 × 10^−9
single step mutation frequency (S. pyogenes [3]; strain 2132 Macrolide-S, 2 × MIC): <1.0 × 10^−10
single step mutation frequency (S. pyogenes [3]; strain 2132 Macrolide-S, 4 × MIC): <1.0 × 10^−10
single step mutation frequency (S. pyogenes [3]; strain 2132 Macrolide-S, 8 × MIC): <1.0 × 10^−10
MIC (S. pyogenes [4]; S. pyogenes (erythromycin R)): 1 µg/mL
MIC (S. pyogenes [4]; S. pyogenes (macrolide susceptible)): 0.015 µg/mL
strains with resistant clones / strains tested (S. pneumoniae [5]; S. pneumoniae): 5/6
Parental MICs (S. pneumoniae [5]; S. pneumoniae, 8 strains with varying resistotypes): 0.016 to 16 µg/mL
MIC (S. pneumoniae [5]; read-out: Initial MIC, strain 24 Macrolide-R [erm(B)], parent): > 64 µg/mL
MIC (S. pneumoniae [5]; read-out: Initial MIC, strain 1076 Macrolide-R [erm(B)&mef(A)], parent): > 64 µg/mL
MIC (S. pneumoniae [5]; read-out: Initial MIC, strain 1077 Macrolide-S, parent): 0.016 µg/mL (≈ 0.0214 µM)
MIC (S. pneumoniae [5]; read-out: Initial MIC, strain 1635 Macrolide-R [erm(A)], parent): 0.5 µg/mL (≈ 0.668 µM)
MIC (S. pneumoniae [5]; read-out: Initial MIC, strain 2686 Macrolide-R [L4 mutation], parent): 8 µg/mL (≈ 10.7 µM)
MIC (S. pneumoniae [5]; read-out: Initial MIC, strain 3009 Macrolide-R [23SrRNA mutation], parent): 16 µg/mL (≈ 21.4 µM)
MIC (S. pneumoniae [5]; read-out: Initial MIC, strain 3665 Macrolide-R [mef(A)], parent): 2 µg/mL (≈ 2.67 µM)
MIC (S. pneumoniae [5]; read-out: Initial MIC, strain 7127 Macrolide-S [S20N in L4, A105V in L22], parent): 0.03 µg/mL (≈ 0.0401 µM)
MIC (S. pneumoniae [5]; read-out: MIC of parents of resistant clones, S. pneumoniae (CEM-101: 7 strains)): 0.03 to 16 µg/mL
MIC (S. pneumoniae [5]; read-out: Selected Resistance MIC, strain 1077 Macrolide-S, after serial passages in the drug): 0.008 µg/mL (≈ 0.0107 µM)
MIC (S. pneumoniae [5]; read-out: Selected Resistance MIC, strain 1635 Macrolide-R [erm(A)], after serial passages in the drug): > 64 µg/mL
MIC (S. pneumoniae [5]; read-out: Selected Resistance MIC, strain 2686 Macrolide-R [L4 mutation], after serial passages in the drug): > 64 µg/mL
MIC (S. pneumoniae [5]; read-out: Selected Resistance MIC, strain 3009 Macrolide-R [23SrRNA mutation], after serial passages in the drug): > 64 µg/mL
MIC (S. pneumoniae [5]; read-out: Selected Resistance MIC, strain 3665 Macrolide-R [mef(A)], after serial passages in the drug): 16 µg/mL (≈ 21.4 µM)
MIC (S. pneumoniae [5]; read-out: Selected Resistance MIC, strain 7127 Macrolide-S [S20N in L4, A105V in L22], after serial passages in the drug): 16 µg/mL (≈ 21.4 µM)
days until resistant clones (MIC increase) (S. pneumoniae [5]; daily passages, min. 14, max. 50): 14 to 49 days
Retest MIC after 10 Antibiotic-free Subcultures (S. pneumoniae [5]; strain 24 Macrolide-R [erm(B)], clone selected with CEM-101): >64 µg/mL
Retest MIC after 10 Antibiotic-free Subcultures (S. pneumoniae [5]; strain 24 Macrolide-R [erm(B)], clone selected with TEL): >64 µg/mL
Retest MIC after 10 Antibiotic-free Subcultures (S. pneumoniae [5]; strain 1076 Macrolide-R [erm(B)&mef(A)], clone selected with CEM-101): >64 µg/mL
Retest MIC after 10 Antibiotic-free Subcultures (S. pneumoniae [5]; strain 1076 Macrolide-R [erm(B)&mef(A)], clone selected with TEL): >64 µg/mL
Retest MIC after 10 Antibiotic-free Subcultures (S. pneumoniae [5]; strain 1077 Macrolide-S, clone selected with AZI): >64 µg/mL
Retest MIC after 10 Antibiotic-free Subcultures (S. pneumoniae [5]; strain 1077 Macrolide-S, clone selected with CEM-101): 0.06 µg/mL
Retest MIC after 10 Antibiotic-free Subcultures (S. pneumoniae [5]; strain 1077 Macrolide-S, clone selected with CLN): >64 µg/mL
Retest MIC after 10 Antibiotic-free Subcultures (S. pneumoniae [5]; strain 1077 Macrolide-S, clone selected with TEL): >64 µg/mL
Retest MIC after 10 Antibiotic-free Subcultures (S. pneumoniae [5]; strain 1635 Macrolide-R [erm(A)], clone selected with AZI): >64 µg/mL
Retest MIC after 10 Antibiotic-free Subcultures (S. pneumoniae [5]; strain 1635 Macrolide-R [erm(A)], clone selected with CEM-101): 1 µg/mL
Retest MIC after 10 Antibiotic-free Subcultures (S. pneumoniae [5]; strain 1635 Macrolide-R [erm(A)], clone selected with CLN): 0.5 µg/mL
Retest MIC after 10 Antibiotic-free Subcultures (S. pneumoniae [5]; strain 1635 Macrolide-R [erm(A)], clone selected with CLR): >64 µg/mL
Retest MIC after 10 Antibiotic-free Subcultures (S. pneumoniae [5]; strain 2686 Macrolide-R [L4 mutation], clone selected with CEM-101): 32 µg/mL
Retest MIC after 10 Antibiotic-free Subcultures (S. pneumoniae [5]; strain 2686 Macrolide-R [L4 mutation], clone selected with CLR): >64 µg/mL
Retest MIC after 10 Antibiotic-free Subcultures (S. pneumoniae [5]; strain 2686 Macrolide-R [L4 mutation], clone selected with TEL): 16 µg/mL
Retest MIC after 10 Antibiotic-free Subcultures (S. pneumoniae [5]; strain 3009 Macrolide-R [23SrRNA mutation], clone selected with CEM-101): >64 µg/mL
Retest MIC after 10 Antibiotic-free Subcultures (S. pneumoniae [5]; strain 3009 Macrolide-R [23SrRNA mutation], clone selected with CLR): 64 µg/mL
Retest MIC after 10 Antibiotic-free Subcultures (S. pneumoniae [5]; strain 3665 Macrolide-R [mef(A)], clone selected with CEM-101): 4 µg/mL
Retest MIC after 10 Antibiotic-free Subcultures (S. pneumoniae [5]; strain 3665 Macrolide-R [mef(A)], clone selected with CLR): 8 µg/mL
Retest MIC after 10 Antibiotic-free Subcultures (S. pneumoniae [5]; strain 3665 Macrolide-R [mef(A)], clone selected with TEL): 2 µg/mL
Retest MIC after 10 Antibiotic-free Subcultures (S. pneumoniae [5]; strain 7127 Macrolide-S [S20N in L4, A105V in L22], clone selected with AZI): 0.5 µg/mL
Retest MIC after 10 Antibiotic-free Subcultures (S. pneumoniae [5]; strain 7127 Macrolide-S [S20N in L4, A105V in L22], clone selected with CEM-101): 0.125 µg/mL
Retest MIC after 10 Antibiotic-free Subcultures (S. pneumoniae [5]; strain 7127 Macrolide-S [S20N in L4, A105V in L22], clone selected with CLN): 0.016 µg/mL
Retest MIC after 10 Antibiotic-free Subcultures (S. pneumoniae [5]; strain 7127 Macrolide-S [S20N in L4, A105V in L22], clone selected with CLR): 16 µg/mL
Retest MIC after 10 Antibiotic-free Subcultures (S. pneumoniae [5]; strain 7127 Macrolide-S [S20N in L4, A105V in L22], clone selected with TEL): 0.06 µg/mL
Dose for 1 log10 Reduction from 24 hour controls (S. pneumoniae [6]; S. pneumoniae 1629): 4.5 mg/Kg
Dose for 3 log10 Reduction from 24 hour controls (S. pneumoniae [6]; S. pneumoniae 1629): 13.5 mg/Kg
Dose for 1 log10 Reduction from 24 hour controls (S. pneumoniae [6]; S. pneumoniae 6303): 5.5 mg/Kg
Dose for 2 log10 Reduction from 24 hour controls (S. pneumoniae [6]; S. pneumoniae 6303): 9.2 mg/Kg
Dose for 3 log10 Reduction from 24 hour controls (S. pneumoniae [6]; S. pneumoniae 6303): 14.0 mg/Kg
